Patent US20160024086A1, “AZAINDOLE RETINOIC ACID RECEPTOR-RELATED ORPHAN RECEPTOR MODULATORS AND USES THEREOF” (INNOV17 LLC, priority 2014, published 2016)

Tests used:
Format in all cases: cell-based
Conditions in all cases: 72 h; human CD4+ T cells under TH17-polarizing conditions, 3 days, supernatant ELISA
IL-17A = assay: Human TH17 cytokine inhibition as measured by ELISA (IL-17A)
Method: (§1) Human TH17 Cytokine Inhibition as Measured by ELISA
(§2) Peripheral blood mononuclear cells (PBMCs) were sourced from freshly prepared leukocyte enriched plasma (buffy coat) from healthy donors (New York Blood Center). PBMCs were isolated by density gradient centrifugation using Ficoll-Paque™ PLUS (GE Healthcare). Human CD4+ T cells were seeded into 96-well plates (5×10^4 cells/well) and activated with plate-bound anti-human (h)-CD3 antibody and soluble h-aCD28 (both at 1 ug/ml; eBioscience) and differentiated into TH17 cells with 20 ng/mL h-IL-6, 5 ng/mL h-TGF-β1, 10 ng/mL h-IL-23 (eBioscience) and 10 ng/mL IL-1β (Miltenyi Biotec) in serum-free TexMACS Medium (Miltenyi Biotec) supplemented with 1% Penicillin/Streptomycin (Lonza) for 3 days. CD4+ T cells propagated under TH17-polarizing conditions were cultured in the presence or absence of various concentrations of compounds with a final concentration of 0.1% DMSO. Supernatants were collected and stored at −20° C. until assayed for IL-17A, IL-17F and IL-21 levels by “Ready-Set-Go” ELISA kits (eBioscience) as per manufacturer's instructions. Endpoint absorbance was read at 450 nm using a microplate reader (Perkin Elmer).

IL-17F = assay: Human TH17 cytokine inhibition as measured by ELISA (IL-17F)
Method: as §1, §2

IL-22 = assay: Human TH17 cytokine inhibition as measured by ELISA (IL-22)
IL-21 = assay: Human TH17 cytokine inhibition as measured by ELISA (IL-21)
Method: as §1, §2

Measured: IC50

C[C@H]1C[C@H](Cn2ccc3nc(-c4cn[nH]c4)ccc32)CN1C(=O)CCc1ccccc1 (racemic) [Example 40, rac.-trans-1-(4-((5-(1H-pyrazol-4-yl)-1H-pyrrolo[3,2-b]pyridin-1-yl)methyl)-2-methylpyrrolidin-1-yl)-3-phenylpropan-1-one]
< 10 µM: all assays above

C[C@@H]1C[C@H](Cn2ccc3nc(-c4cn[nH]c4)ccc32)CN1C(=O)CCc1ccccc1 (racemic) [Example 41, rac.-cis-1-(4-((5-(1H-pyrazol-4-yl)-1H-pyrrolo[3,2-b]pyridin-1-yl)methyl)-2-methylpyrrolidin-1-yl)-3-phenylpropan-1-one]
< 10 µM: IL-17A | IL-17F | IL-21

O=C(CCc1ccccc1)N1CCC(Cn2ccc3nc(-c4cn[nH]c4)ccc32)CC1 [Example 3, 1-(4-((5-(1H-pyrazol-4-yl)-1H-pyrrolo[3,2-b]pyridin-1-yl)methyl)piperidin-1-yl)-3-phenylpropan-1-one]
< 10 µM: IL-17A | IL-17F | IL-21

O=C(CC1CCCCC1)N1CCC(Cn2ccc3nc(-c4cn[nH]c4)ccc32)CC1 [Example 4, 1-(4-((5-(1H-pyrazol-4-yl)-1H-pyrrolo[3,2-b]pyridin-1-yl)methyl)piperidin-1-yl)-2-cyclohexylethanone]
< 10 µM: IL-17A | IL-17F | IL-21

O=C(Cc1ccccc1)N1CCC(Cn2ccc3nc(-c4cn[nH]c4)ccc32)CC1 [Example 7, 1-(4-((5-(1H-pyrazol-4-yl)-1H-pyrrolo[3,2-b]pyridin-1-yl)methyl)piperidin-1-yl)-2-phenylethanone]
< 10 µM: IL-17A | IL-17F | IL-21

CC1(C)CC(Cn2ccc3nc(-c4cn[nH]c4)ccc32)CN1C(=O)c1ccccc1 (stereo not drawn) [Example 19, (4-((5-(1H-pyrazol-4-yl)-1H-pyrrolo[3,2-b]pyridin-1-yl)methyl)-2,2-dimethylpyrrolidin-1-yl)(phenyl)methanone]
< 10 µM: IL-17A | IL-17F | IL-21

O=S(=O)(c1ccccc1)N1CCC(Cn2ccc3nc(-c4cn[nH]c4)ccc32)CC1 [Example 30, 1-((1-(phenylsulfonyl)piperidin-4-yl)methyl)-5-(1H-pyrazol-4-yl)-1H-pyrrolo[3,2-b]pyridine]
< 10 µM: all assays above

O=S(=O)(Cc1ccccc1)N1CCC(Cn2ccc3nc(-c4cn[nH]c4)ccc32)CC1 [Example 32, 1-((1-(benzylsulfonyl)piperidin-4-yl)methyl)-5-(1H-pyrazol-4-yl)-1H-pyrrolo[3,2-b]pyridine]
< 10 µM: all assays above
